In test [1] the target is Signal transducer and activator of transcription 3 (Homo sapiens) (UniProt P40763). Kind of test: Inhibition of IL-6 induced STAT3 phosphorylation at tyrosine 705 residue in serum-starved human HeLa cells at 10 to 30 uM after 20 mins by Western blot analysis. The class given is cell-based. In general terms: In western blotting, separated proteins are transferred to a membrane and probed.

Test [2] has as its target T1, Signal transducer and activator of transcription 1-alpha/beta (Homo sapiens) (UniProt P42224).
T1 sequence (whole entry): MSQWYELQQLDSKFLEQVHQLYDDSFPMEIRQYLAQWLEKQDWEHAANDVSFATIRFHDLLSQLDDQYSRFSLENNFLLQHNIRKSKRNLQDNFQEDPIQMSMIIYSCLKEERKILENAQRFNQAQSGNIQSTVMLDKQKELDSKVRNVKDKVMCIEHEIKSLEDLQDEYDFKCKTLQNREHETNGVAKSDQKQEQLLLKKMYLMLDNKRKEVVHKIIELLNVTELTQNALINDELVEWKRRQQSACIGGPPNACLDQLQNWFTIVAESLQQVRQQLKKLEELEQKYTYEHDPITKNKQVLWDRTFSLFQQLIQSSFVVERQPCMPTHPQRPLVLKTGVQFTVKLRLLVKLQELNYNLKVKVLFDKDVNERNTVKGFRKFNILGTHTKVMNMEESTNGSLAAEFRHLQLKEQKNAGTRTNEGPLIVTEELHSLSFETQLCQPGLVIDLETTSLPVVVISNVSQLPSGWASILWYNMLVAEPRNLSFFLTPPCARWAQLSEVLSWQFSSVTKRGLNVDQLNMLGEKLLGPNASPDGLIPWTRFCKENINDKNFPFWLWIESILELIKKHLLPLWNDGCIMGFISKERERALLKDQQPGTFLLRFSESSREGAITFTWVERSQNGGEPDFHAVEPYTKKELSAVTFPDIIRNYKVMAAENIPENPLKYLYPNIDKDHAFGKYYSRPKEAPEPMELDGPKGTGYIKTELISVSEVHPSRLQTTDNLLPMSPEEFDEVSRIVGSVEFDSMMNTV
Nature of the test: Induction of STAT1 phosphorylation in human HeLa cells at 30 to 100 uM by Western blot analysis. The class given is cell-based.

For test [3], the target named is Signal transducer and activator of transcription 3 (Homo sapiens) (UniProt P40763). Nature of the test: Inhibition of STAT3 in human HeLa cells at 5 to 100 uM by luciferase reporter assay. The class given is cell-based. In general terms: In a reporter assay the amount or activity of a reporter protein is the signal.
Test [4] has the same target. Nature of the test: Inhibition of IL-6 induced STAT3 phosphorylation at tyrosine 705 residue in serum-starved human MDA-MB-231 cells at 30 to 100 uM after 20 mins by Western blot analysis. The class given is cell-based.
Test [5] has the same target. Nature of the test: Inhibition of STAT3 in IL-6-stimulated human MDA-MB-231 cells assessed as reduction in cell viability up to 125 uM after 24 hrs by MTS assay. The class given is cell-based. On the technique in general: Tetrazolium assays rely on reduction of a dye to a coloured formazan, in cell work by metabolically active cells.
The subject of the next test is MDA-MB-231. Nature of the test: Cytostatic activity against human MDA-MB-231 cells assessed as cell viability after 24 hrs by trypan blue assay. The class given is functional, cell-based.

Results on one molecule are retold here after ChEMBL document CHEMBL1287710, “A novel small-molecule inhibitor of IL-6 signalling” (Bioorg Med Chem Lett, 2010).

Molecules are shown by their SMILES. Calls of active or inactive are those of the source. The calls are words filed in the database; no cut-off is given here.

Sequence of Signal transducer and activator of transcription 3 (Homo sapiens) (P40763 whole entry): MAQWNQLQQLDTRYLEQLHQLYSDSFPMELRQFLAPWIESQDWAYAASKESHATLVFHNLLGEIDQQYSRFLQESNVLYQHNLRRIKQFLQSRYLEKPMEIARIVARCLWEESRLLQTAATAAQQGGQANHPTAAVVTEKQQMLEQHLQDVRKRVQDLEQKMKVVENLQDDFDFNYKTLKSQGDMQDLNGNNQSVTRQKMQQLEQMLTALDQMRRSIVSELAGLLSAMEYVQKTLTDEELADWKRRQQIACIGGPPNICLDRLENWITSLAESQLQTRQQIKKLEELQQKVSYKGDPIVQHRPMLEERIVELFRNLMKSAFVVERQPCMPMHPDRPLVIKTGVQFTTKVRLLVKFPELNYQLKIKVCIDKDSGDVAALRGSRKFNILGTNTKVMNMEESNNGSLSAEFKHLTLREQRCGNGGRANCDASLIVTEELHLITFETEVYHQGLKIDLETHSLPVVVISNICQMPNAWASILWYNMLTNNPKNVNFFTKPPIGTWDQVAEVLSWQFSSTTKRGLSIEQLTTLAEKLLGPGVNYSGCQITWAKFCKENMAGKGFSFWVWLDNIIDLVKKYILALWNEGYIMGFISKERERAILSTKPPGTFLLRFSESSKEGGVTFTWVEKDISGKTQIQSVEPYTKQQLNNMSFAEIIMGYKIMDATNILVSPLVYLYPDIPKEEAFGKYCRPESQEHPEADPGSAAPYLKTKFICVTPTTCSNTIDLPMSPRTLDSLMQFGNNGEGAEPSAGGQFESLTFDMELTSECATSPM

For the molecule `Cc1ccc(-c2sc(C(=O)NCc3cccs3)cc2S(=O)(=O)N2CCCC2)cc1`, the result in test [1], in test [2] and in test [4] was Active. Also, the Activity in test [3] is 15 µM. The inhibition in test [5] came to 40%. The outcome in the test with MDA-MB-231 was inactive.

As usually defined, the inhibition is the relative decrease from the control value, in per cent.
